Source: patent publication US20120064519A1, “SYSTEM AND METHOD FOR DUAL-DETECTION OF A CELLULAR RESPONSE” (priority 2007, published 2012)

Tested on: A431 cells
Experiment: EW-excited fluorescence of IRDye labeled EGF interacting with A431 cells on RWG biosensor microplate
Format: cell-based, human
Description: 384-well Epic® cell assay microplates were obtained from Corning Inc. (Corning, N.Y.). The surface of each Epic® cell assay microplate is tissue culture compatible and enables the attachment and normal growth of adherent cells, including native cells, recombinant or engineered cell lines, primary cells, and like cells.
Cell culturing—Human epidermoid carcinoma A431 cells (American Type Cell Culture) were grown in Dulbecco's modified Eagle's medium (DMEM) supplemented with 10% fetal bovine serum (FBS), 4.5 g/liter glucose, 2 mM glutamine, and antibiotics. About 1.5 to about 2×10^4 cells at passage 3 to 15 suspended in 200 microliters of the DMEM medium containing 10% FBS were placed in each well of a 384-well microplate. After cell seeding, the cells were cultured at 37° C. under air/5% CO2 until about 95% confluency was reached (about 1-2 days). The confluent cells were washed with serum-free medium and incubated in the same medium at 37° C. under air/5% CO2 for 20 hours. On the day of assay, the cells were washed with HBSS (Hanks Balanced Salt Solution with 20 mM HEPES) buffer. The resulting A431 cells were assayed without or with pretreatment with modulators including, for example, AG1478, dynamin inhibitory peptide (DIPC), or unlabeled EGF. The EGFR was activated with the IRDye® labeled EGF and the resultant DMR signals were then recorded.
Optical system—An optical detection system is constructed and used for dual-detection of both EW-based labeled-free signal and EW-excited fluorescence of IR dye molecules as shown in FIG. 2C.
FIGS. 12A to 12D show measured fluorescence intensities of A431 cells cultured on the biosensor microplate surfaces in response to stimulation with IRDye® labeled EGF (64 nM), as a function of time.

[1] = pretreatment 10 micromolar for 1 hr, then IRDye labeled EGF 64 nM (FIG. 12C)

COc1cc2ncnc(Nc3cccc(Cl)c3)c2cc1OC [AG1478]
effect on decay phase in fluorescence intensity [1]: completely blocked | effect on initial increase phase in fluorescence intensity [1]: complicated effects

IRDye-EGF: near-infrared (NIR) labeled recombinant human epidermal growth factor, 54 amino acid residues, conjugated with the IRDye fluorophore; LI-COR Biosciences
fluorescence intensity as a function of time (IRDye labeled EGF 64 nM, A431 cells without any pretreatment (FIG. 12A)): an initial increase in fluorescence; and thereafter by a slow decrease in fluorescence

unlabeled EGF: epidermal growth factor; causes receptor internalization and desensitization; obtained from Sigma
effect on both the increase and decrease phase in fluorescence intensity (pretreatment 32 nM for 1 hr, then IRDye labeled EGF 64 nM (FIG. 12D)): almost completely blocked
